Assay [1] deals with T1, Ectonucleotide pyrophosphatase/phosphodiesterase family member 1 (Homo sapiens, UniProt P22413).
T1 sequence (P22413 whole entry): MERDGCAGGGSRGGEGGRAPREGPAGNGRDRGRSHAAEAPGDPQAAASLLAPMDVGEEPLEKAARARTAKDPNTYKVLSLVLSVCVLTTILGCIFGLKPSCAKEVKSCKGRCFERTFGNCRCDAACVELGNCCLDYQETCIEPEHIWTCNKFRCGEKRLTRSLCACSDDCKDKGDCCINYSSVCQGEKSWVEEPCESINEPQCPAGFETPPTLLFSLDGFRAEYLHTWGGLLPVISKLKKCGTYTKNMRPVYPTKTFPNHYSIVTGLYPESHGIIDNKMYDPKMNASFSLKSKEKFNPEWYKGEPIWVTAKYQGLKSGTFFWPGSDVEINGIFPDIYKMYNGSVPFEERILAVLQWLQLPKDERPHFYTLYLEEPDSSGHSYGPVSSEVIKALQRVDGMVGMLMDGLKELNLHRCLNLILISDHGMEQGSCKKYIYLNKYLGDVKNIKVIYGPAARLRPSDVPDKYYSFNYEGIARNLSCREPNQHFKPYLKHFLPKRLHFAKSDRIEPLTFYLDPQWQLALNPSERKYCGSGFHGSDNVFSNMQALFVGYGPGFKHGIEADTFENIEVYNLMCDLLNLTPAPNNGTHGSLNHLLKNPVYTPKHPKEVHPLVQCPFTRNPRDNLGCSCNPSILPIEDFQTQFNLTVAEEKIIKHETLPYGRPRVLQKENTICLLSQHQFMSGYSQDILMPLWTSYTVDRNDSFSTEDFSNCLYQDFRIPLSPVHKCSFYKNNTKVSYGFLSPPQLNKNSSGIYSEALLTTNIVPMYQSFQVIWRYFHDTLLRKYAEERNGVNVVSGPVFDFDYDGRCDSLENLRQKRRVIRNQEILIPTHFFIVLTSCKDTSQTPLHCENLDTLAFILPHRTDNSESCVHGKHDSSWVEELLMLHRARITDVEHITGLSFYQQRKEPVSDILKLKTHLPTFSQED
Put plainly: Competitive-inhibition of recombinant human N-terminal His-tagged soluble NPP1 (Val191 to Leu591 residues) expressed in mouse NSO cells using ATP as substrate after 30 mins by capillary electrophoresis method.

The target in assay [2] is T2, Ectonucleotide pyrophosphatase/phosphodiesterase family member 1 (Rattus norvegicus, UniProt Q924C3).
T2 sequence (Q924C3 whole entry): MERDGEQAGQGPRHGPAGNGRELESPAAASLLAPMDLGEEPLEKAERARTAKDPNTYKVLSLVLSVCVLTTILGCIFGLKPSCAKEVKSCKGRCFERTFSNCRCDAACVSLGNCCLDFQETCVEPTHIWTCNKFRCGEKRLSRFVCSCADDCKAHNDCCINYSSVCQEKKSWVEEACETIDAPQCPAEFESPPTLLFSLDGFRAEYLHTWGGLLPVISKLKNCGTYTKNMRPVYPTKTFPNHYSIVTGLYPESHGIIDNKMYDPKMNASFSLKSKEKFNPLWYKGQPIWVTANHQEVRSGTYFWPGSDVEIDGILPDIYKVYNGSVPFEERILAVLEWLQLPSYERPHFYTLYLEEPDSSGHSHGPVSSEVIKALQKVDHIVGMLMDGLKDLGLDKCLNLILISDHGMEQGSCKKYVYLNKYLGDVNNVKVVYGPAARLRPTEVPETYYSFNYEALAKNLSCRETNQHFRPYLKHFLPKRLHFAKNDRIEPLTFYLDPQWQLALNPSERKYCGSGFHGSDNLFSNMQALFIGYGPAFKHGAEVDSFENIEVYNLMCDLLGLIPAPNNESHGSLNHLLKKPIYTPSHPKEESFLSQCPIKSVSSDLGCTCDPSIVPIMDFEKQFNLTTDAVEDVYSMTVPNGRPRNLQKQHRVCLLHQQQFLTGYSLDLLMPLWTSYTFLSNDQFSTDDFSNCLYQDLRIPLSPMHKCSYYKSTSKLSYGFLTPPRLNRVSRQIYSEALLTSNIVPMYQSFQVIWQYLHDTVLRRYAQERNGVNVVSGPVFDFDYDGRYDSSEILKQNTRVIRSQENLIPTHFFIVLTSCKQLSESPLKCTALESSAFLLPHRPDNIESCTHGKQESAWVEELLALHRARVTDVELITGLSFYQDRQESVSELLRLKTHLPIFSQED
The assay can be described thus: Competitive-inhibition of Wistar rat NPP1 using p-Nph-5'-TMP as substrate measured after 5 mins by UPLC method.

For assay [3], the target named is T1, Ectonucleotide pyrophosphatase/phosphodiesterase family member 1. Put plainly: Competitive-inhibition of recombinant human NPP1 expressed in HEK293 cell membranes using p-Nph-5'-TMP as substrate pretreated for 10 mins followed by substrate addition and measured after 60 mins by capillary electrophoresis method.
For assay [4] the target is unchanged. The assay can be described thus: Noncompetitive-inhibition of recombinant human NPP1 expressed in HEK293 cell membranes using p-Nph-5'-TMP as substrate pretreated for 10 mins followed by substrate addition and measured after 60 mins by capillary electrophoresis method.
The target is the same in assay [5]. Put plainly: Uncompetitive-inhibition of recombinant human N-terminal His-tagged soluble NPP1 (Val191 to Leu591 residues) expressed in mouse NSO cells using p-Nph-5'-TMP as substrate after 15 mins by capillary electrophoresis method.
The target is the same in assay [6]. The assay can be described thus: Uncompetitive-inhibition of recombinant human N-terminal His-tagged soluble NPP1 (Val191 to Leu591 residues) expressed in mouse NSO cells using ATP as substrate by capillary electrophoresis method.
For assay [7] the target is unchanged. The assay can be described thus: Uncompetitive-inhibition of recombinant human N-terminal His-tagged soluble NPP1 (Val191 to Leu591 residues) expressed in mouse NSO cells using ATP as substrate after 30 mins by capillary electrophoresis method.
Assay [8] shares this target. The assay can be described thus: Uncompetitive-inhibition of recombinant human N-terminal His-tagged soluble NPP1 (Val191 to Leu591 residues) expressed in mouse NSO cells using p-Nph-5'-AMP as substrate after 30 mins by capillary electrophoresis method.
For assay [9] the target is unchanged. Put plainly: Inhibition of recombinant human NPP1 expressed in COS7 cell membranes using p-Nph-5'-TMP as substrate pretreated for 10 mins followed by substrate addition and measured after 30 mins.
For assay [10] the target is unchanged. Put plainly: Inhibition of recombinant human NPP1 expressed in COS7 cell membranes using p-Nph-5'-TMP as substrate pretreated for 10 mins followed by substrate addition and measured after 30 mins by spectrophotometric method.
Assay [11] addresses T2, Ectonucleotide pyrophosphatase/phosphodiesterase family member 1. The assay can be described thus: Inhibition of NPP1 in Wistar rat C6 cells using [gamma-32P]ATP as substrate pretreated for 30 mins followed by substrate addition and measured after 90 mins by TLC analysis. Format: cell-based.
The target is the same in assay [12]. The assay can be described thus: Mixed-inhibition of Wistar rat NPP1 using p-Nph-5'-TMP as substrate measured after 5 mins by UPLC method.

Turning to `Nc1ncnc2c1ncn2[C@@H]1O[C@H](COP(=O)(O)OP(=O)(O)OP(=O)(O)O)[C@@H](OC(=O)c2ccc(C(=O)c3ccccc3)cc2)[C@H]1O`, the values for the Ki in assay [1], in assay [2] and in assay [3] were 14.6 µM, 20.5 µM and 2.96 µM, respectively.
Take `CSc1nc(N)c2ncn([C@@H]3O[C@H](COP(=O)(O)OP(=O)(O)OP(=O)(O)O)[C@@H](O)[C@H]3O)c2n1`: the Ki was 21.3 µM in [1] and 20.5 µM in assay [2].
Take `Nc1ncnc2c1ncn2[C@@H](C=O)O[C@@H](C=O)COP(=O)(O)OP(=O)(O)O`: in [4], the Ki was 3.42 µM.
Regarding `Nc1ncnc2c1ncn2[C@@H](C=O)O[C@@H](C=O)COP(=O)(O)OP(=O)(O)OP(=O)(O)O`, the Ki stood at 4.09 µM in [5]; 6.82 µM in assay [6]; 6.96 µM in [7]; 9.8 µM in assay [2]; 5.08 µM in assay [8].
In the case of `CCC(Oc1ccc(C)cc1)c1nnc(SCC(=O)Nc2nc3ccccc3s2)o1` (centres undefined), in assay [9], the IC50 lay in the range of 1.9 to 5.5 µM.
In the case of `COc1cc2cc(-n3cc(C)c4ccccc43)n3c4ccccc4c(C)c3c2cc1OC`, the IC50 in assay [10] lay in the range of 0.36 to 2.81 µM.
On to `CSc1nc(N)c2ncn([C@@H]3O[C@H](COP(=O)(O)OP(=O)(O)O)[C@@H](O)[C@H]3O)c2n1`, for which the inhibitory constant (Ki) in assay [1] worked out at 23.7 µM.
For `Cc1nc(/N=N/c2ccc(S(=O)(=O)O)cc2S(=O)(=O)O)c(COP(=O)(O)O)c(C=O)c1O`, the 50% inhibitory concentration (IC50) in assay [11] turned out to be 12 µM.
Take `Nc1ncnc2c1ncn2[C@@H]1O[C@H](COP(=O)(O)CP(=O)(O)OP(=O)(O)O)[C@@H](O)[C@H]1O` [DIPHOSPHOMETHYLPHOSPHONIC ACID ADENOSYL ESTER]: the Ki in assay [2] stood at 2.2 µM.
In the case of `Nc1ncnc2c1ncn2[C@@H]1O[C@H](COP(=O)(O)CP(=O)(O)O)[C@@H](O)[C@H]1O` [PHOSPHOMETHYLPHOSPHONIC ACID ADENOSYL ESTER], the Ki is 24.3 µM in assay [1] and 9.6 µM in assay [12].
In the case of `Cc1ccc(C(=O)Nc2ccc(S(=O)(=O)O)c3cc(S(=O)(=O)O)cc(S(=O)(=O)O)c23)cc1NC(=O)c1cccc(NC(=O)Nc2cccc(C(=O)Nc3cc(C(=O)Nc4ccc(S(=O)(=O)O)c5cc(S(=O)(=O)O)cc(S(=O)(=O)O)c45)ccc3C)c2)c1` [SURAMIN], the IC50 in assay [11] was found to be 72 µM.

(Values after ChEMBL document CHEMBL4261497, “Nucleotide pyrophosphatase/phosphodiesterase 1 (NPP1) and its inhibitors” (Medchemcomm, 2017).)
